How the values were obtained:
THP1 cells = test: IFN-β secretion in THP1 cell culture (5 h); format: cell-based, human; conditions: relative to 30 uM cGAMP
Method: The ability of compounds to stimulate the secretion of interferon-beta from THP1 cells was measured using a human IFN-3 AlphaLISA kit (Perkin Elmer, Cat. No. AL265F). The basic protocol is as follows:
The cell viability and count was ascertained using a Beckman Coulter V-Cell XR cell counter. The cells suspension was centrifuged at 200×g for 5 min at RT. Cells were resuspended to a density of 0.8×10^6/mL in 37° C. assay medium. Subsequent liquid transfers were performed using either a Matrix electronic multichannel pipette or an Agilent Bravo Automated Liquid Handling Platform.
The assay was started by dispensing 40 μL of the previously prepared cell suspension into the wells of the plate containing compounds. After 5 h incubation at 37° C., 5% CO2 in a humidified atmosphere, the plate of cells and compounds was centrifuged at 200×g for 5 min at RT. […] To these supernatant-containing wells was added 10 μL of 5× Anti-Analyte Acceptor beads ([…] of AlphaLISA HiBlock Buffer) and incubated for 30 min at RT while shaking on an orbital plate shaker. To each well was added 10 μL of 5× Biotinylated Antibody Anti-analyte (5 nM in AlphaLISA HiBlock Buffer) and incubated on an orbital plate shaker for 60 min at RT or overnight at 4° C. To each well was added 25 μL of 2× SA-Donor beads ([…] in AlphaLISA HiBlock Buffer) and incubated for 30-45 min at RT in the dark while shaking on an orbital plate shaker. The plate was then read on a Perkin Elmer Envision (λex=680 nm, […]). The percent effect of the AlphaLISA signal at each compound concentration was calculated based on 30 uM cGAMP positive controls and 0.3% DMSO negative controls. The plot of percent effect versus the log of compound concentration was fit with a 4-parameter concentration response equation to calculate EC50 values.
Compounds of the disclosure were evaluated for IFN-3 secretion in THP1 cell culture as described above.

full-length WT STING = full-length WT STING (Homo sapiens (Human), UniProt Q86WV6, H232R); test: 3H-cGAMP filtration binding assay (WT STING); conditions: WT STING, compound at 20 uM
Sequence of full-length WT STING (Q86WV6 other isoform, or with tags, fused parts or gaps H232R (already in the parent)): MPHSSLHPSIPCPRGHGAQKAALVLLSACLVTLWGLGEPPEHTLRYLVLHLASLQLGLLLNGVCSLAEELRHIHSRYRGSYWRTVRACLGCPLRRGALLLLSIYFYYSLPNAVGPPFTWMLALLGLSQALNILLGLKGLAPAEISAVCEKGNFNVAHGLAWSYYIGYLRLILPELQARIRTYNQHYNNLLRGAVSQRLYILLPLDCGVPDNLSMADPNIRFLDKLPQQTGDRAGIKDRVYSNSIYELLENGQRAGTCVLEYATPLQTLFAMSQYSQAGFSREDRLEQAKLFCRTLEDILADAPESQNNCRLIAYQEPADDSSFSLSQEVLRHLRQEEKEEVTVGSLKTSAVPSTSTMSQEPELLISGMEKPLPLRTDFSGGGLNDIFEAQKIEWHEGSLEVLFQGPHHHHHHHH
From the text: (§1) The ability of compounds to bind STING is quantified by their ability to compete with tritiated cGAMP ligand for human STING receptor membrane using a radioactive filter-binding assay. The binding assay employs STING receptor obtained from Trichoplusia ni cell membranes (T. ni; Expression Systems, cat #94-002F, www.expressionsystems.com) overexpressing full-length WT STING and tritiated cGAMP ligand.
The basic WT STING filtration assay protocol is as follows:
The filter plates were then dried at 55° C. for 30 min using a pressurized VWR oven before 30 uL of ULTIMA GOLD F scintillate was added to each well. Tritium levels for each reaction well were then measured using a PerkinElmer TopCount plate reader.
(§2) After normalization to controls, the percent activity for each compound concentration was calculated by measuring the amount of remaining radioactivity. The plot of percent activity versus the log of compound concentration was fit with a 4-parameter dose response equation to calculate EC50 values.

full-length HAQ STING = full-length HAQ STING (Homo sapiens (Human), UniProt Q86WV6, G230A/H232R/R293Q/R71H); test: 3H-cGAMP filtration binding assay (HAQ STING); conditions: competition with tritiated cGAMP, HAQ STING membrane
Sequence of full-length HAQ STING (Q86WV6 other isoform, or with tags, fused parts or gaps, stated change not applied): as the sequence (Q86WV6 other isoform, or with tags, fused parts or gaps H232R (already in the parent)) above, with R71H, G230A, R293Q counted along it
From the text: The ability of compounds to bind STING is quantified by the ability to compete with tritiated cGAMP ligand for human STING receptor membrane using a radioactive filter-binding assay. The binding assay employs STING receptor obtained from Hi-Five cell membranes overexpressing full-length HAQ STING prepared in-house and tritiated cGAMP ligand also purified in-house.
as §1, with “www.exressionsystems.com)” for “www.expressionsystems.com)”, “HAQ” for “WT”
The basic HAQ STING filtration assay protocol is as follows:
Compound and membrane then preincubated for 60 min at RT to allow compound binding to equilibrate. Following equilibration, 8 nM of [^3H]c-GAMP ligand was prepared by diluting into assay buffer, and 50 uL of this working stock was then manually added to each well of the assay plate. […] The filter plates were then dried at 55° C. for 30 min using a pressurized oven before 30 uL of ULTIMA GOLD F scintillate was added to each well. Tritium levels for each reaction well were then measured using a PerkinElmer TopCount plate reader.
as §2

- % Inh @ 20 uM (full-length WT STING): 10% Inh @ 20 μM
- EC50 (full-length HAQ STING): 5.94 µM
Substance: (S)-4-(5,6-dimethylbenzo [b]thiophen-2-y1)- 2-methyl-4- oxobutanoic acid [Example 31]
- % Effect at 30 μM relative to 2’3’-cGAMP (THP1 cells): 24%
